According to patent US8163793B2, “Proline derivatives” (Hoffman-La Roche Inc., priority 2009, dated 2012):
Where a name gives a salt, the structure may show the parent alone.

Experiments:
Cat L = Cat L (UniProt P07711); experiment: Cathepsin enzyme inhibition assay (fluorogenic peptide substrate Z-Val-Val-Arg-AMC), Cathepsin L; type: biochemical, human and mouse; settings: enzyme 1 nM, substrate 20 μM, pH 6.5; read-out: CatL IC50
Method in brief: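 Cathepsin L at 1 nM was mixed with compound, then started with 20 μM Z-Val-Val-Arg-AMC in pH 6.5 potassium phosphate with EDTA, Triton X-100 and 5 mM DTT. AMC fluorescence (ex 360/em 465 nm) was followed over 20 min. IC50 is given in μM.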

Cathepsin S = Cathepsin S (UniProt P25774); experiment: Cathepsin enzyme inhibition assay (fluorogenic peptide substrate Z-Val-Val-Arg-AMC), Cathepsin S; type: biochemical, human and mouse; settings: enzyme 1 nM, substrate 20 μM, pH 6.5; read-out: CatS IC50
Method in brief: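 Human or mouse cathepsin S (1 nM) was run in 100 mM potassium phosphate pH 6.5 with 5 mM EDTA, 0.001% Triton X-100 and 5 mM DTT. The rise in AMC fluorescence from cleavage was measured, and IC50 values were calculated by standard methods and expressed in μM.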

Row | SMILES | IC50 (Cat L) [nM] | IC50 (Cathepsin S) [nM]
1 | Cc1cc(N2C[C@H](S(=O)(=O)c3ccc(OCC(F)(F)F)cc3C(F)(F)F)C[C@H]2C(=O)NC2(C#N)CC2)n(-c2ccc(C(F)(F)F)cc2)n1 [Example 306, (2S,4R)-1-[5-Methyl-2-(4-trifluoromethyl-phenyl)-2H-pyrazol-3-yl]-4-[4-(2,2,2-trifluoro-ethoxy)-2-trifluoromethyl-benzenesulfonyl]-pyrrolidine-2-carboxylic acid (1-cyano-cyclopropyl)-amide] | 64500 | 0.555
2 | N#CC1(NC(=O)[C@@H]2C[C@@H](S(=O)(=O)c3ccc(Cl)cc3Cl)CN2C(=O)C2CC2(F)F)CC1 (stereo partly drawn) [Example 170, (2S,4R)-4-(2,4-Dichloro-benzenesulfonyl)-1-(2,2-difluoro-cyclopropanecarbonyl)-pyrrolidine-2-carboxylic acid (1-cyano-cyclopropyl)-amide] | 18400 | 1
3 | N#CC1(NC(=O)[C@@H]2C[C@@H](S(=O)(=O)c3ccccc3C(F)(F)F)CN2C(=O)C2(c3ccc(Cl)nc3)CC2)CC1 [Example 361, (2S,4R)-1-[1-(6-Chloro-pyridin-3-yl)-cyclopropanecarbonyl]-4-(2-trifluoromethyl-benzenesulfonyl)-pyrrolidine-2-carboxylic acid (1-cyano-cyclopropyl)-amide] | 995 | 0.02
4 | Cc1cc(N2C[C@H](S(=O)(=O)c3ccccc3Cl)C[C@H]2C(=O)NC2(C#N)CC2)n(C2CCSCC2)n1 [Example 465, (2S,4R)-4-(2-chlorophenylsulfonyl)-N-(1-cyanocyclopropyl)-1-(3-methyl-1-(tetrahydro-2H-thiopyran-4-yl)-1H-pyrazol-5-yl)pyrrolidine-2-carboxamide] | 2740 | 3.05
5 | Cc1cc(-c2ccc(S(=O)(=O)[C@@H]3C[C@@H](C(=O)NC4(C#N)CC4)N(C(=O)C4(C)CC4)C3)c(C(F)(F)F)c2)ccn1 [Example 257, (2S,4R)-1-(1-M ethyl-cyclopropanecarbonyl)-4-[4-(2-methyl-pyridin-4-yl)-2-trifluoromethyl-benzenesulfonyl]-pyrrolidine-2-carboxylic acid (1-cyano-cyclopropyl)-amide] | 48200 | 0.195
6 | COCCOc1ccc(S(=O)(=O)[C@@H]2C[C@@H](C(=O)NC3(C#N)CC3)N(c3cc(C)nn3C3CCC3)C2)c(Cl)c1 [Example 489, (2S,4R)-4-[2-Chloro-4-(2-methoxy-ethoxy)-benzenesulfonyl]-1-(2-cyclobutyl-5-methyl-2H-pyrazol-3-yl)-pyrrolidine-2-carboxylic acid (1-cyano-cyclopropyl)-amide] | 3540 | 0.51
7 | N#CC1(NC(=O)[C@@H]2C[C@@H](S(=O)(=O)c3ccccc3Cl)CN2S(=O)(=O)c2ccc(Cl)cc2)CC1 [Example 315, (2S,4R)-4-(2-Chloro-benzenesulfonyl)-1-(4-chloro-benzenesulfonyl)-pyrrolidine-2-carboxylic Acid (1-cyano-cyclopropyl)-amide] | 2500 | 0.39
8 | COC(=O)c1ccc(C(=O)N2C[C@H](S(=O)(=O)c3ccccc3C(F)(F)F)C[C@H]2C(=O)NC2(C#N)CC2)cc1 [Example 118, 4-[(2S,4R)-2-(1-Cyano-cyclopropylcarbamoyl)-4-(2-trifluoromethyl-benzenesulfonyl)-pyrrolidine-1-carbonyl]-benzoic acid methyl ester] | ≥ 25000 | 0.9
9 | N#CC1(NC(=O)[C@@H]2C[C@@H](S(=O)(=O)c3ccccc3Cl)CN2C2CCC2)CC1 [Example 84, (2S,4R)-4-(2-Chloro-benzenesulfonyl)-1-cyclobutyl-pyrrolidine-2-carboxylic acid (1-cyano-cyclopropyl)-amide] | ≥ 25000 | 55
10 | CCC(=O)N1C[C@H](S(=O)(=O)c2ccccc2C(F)(F)F)C[C@H]1C(=O)NC1(C#N)CC1 [Example 103, (2S,4R)-1-Propionyl-4-(2-trifluoromethyl-benzenesulfonyl)-pyrrolidine-2-carboxylic acid (1-cyano-cyclopropyl)-amide] | ≥ 25000 | 1.6
11 | N#CC1(NC(=O)C2CC(S(=O)(=O)c3ccccc3C(F)(F)F)CN2c2cccc(C(F)(F)F)c2)CC1 (stereo not drawn) [Example 354, 4-(2-Trifluoromethyl-benzenesulfonyl)-1-(3-trifluoromethyl-phenyl)-pyrrolidine-2-carboxylic Acid (1-cyano-cyclopropyl)-amide] | ≥ 25000 | 0.175
12 | N#CC1(NC(=O)[C@@H]2C[C@@H](S(=O)(=O)c3ccccc3Cl)CN2C(=O)C2(Oc3ccc(Cl)cc3)CC2)CC1 [Example 473, (2S,4R)-4-(2-Chloro-benzenesulfonyl)-1-[1-(4-chloro-phenoxy)-cyclopropanecarbonyl]-pyrrolidine-2-carboxylic acid (1-cyano-cyclopropyl)-amide] | 4410 | 70
13 | Cc1cc(N2C[C@H](S(=O)(=O)c3ccc(N4CC(F)(F)C4)cc3Cl)C[C@H]2C(=O)NC2(C#N)CC2)n(C2CCOCC2)n1 [Example 464, (2S,4R)-4-(2-chloro-4-(3,3-difluoroazetidin-1-yl)phenylsulfonyl)-N-(1-cyanocyclopropyl)-1-(3-methyl-1-(tetrahydro-2H-pyran-4-yl)-1H-pyrazol-5-yl)pyrrolidine-2-carboxamide] | 3020 | 1.15
14 | N#CC1(NC(=O)[C@@H]2C[C@@H](S(=O)(=O)c3ccccc3C(F)(F)F)CN2)CC1 [Example 43, (2S,4R)-4-(2-Trifluoromethyl-benzenesulfonyl)-pyrrolidine-2-carboxylic acid (1-cyano-cyclopropyl)-amide] | ≥ 25000 | 2.2
15 | N#CC1(NC(=O)[C@@H]2C[C@@H](S(=O)(=O)c3ccccc3Cl)CN2C(=O)C2(c3ccc(F)cc3)CC2)CC1 [Example 425, (2S,4R)-4-(2-chlorophenylsulfonyl)-N-(1-cyanocyclopropyl)-1-(1-(4-fluorophenyl)-cyclopropanecarbonyl)pyrrolidine-2-carboxamide] | 335 | 0.26
16 | CN1C[C@H](S(=O)(=O)c2ccccc2Cl)C[C@H]1C(=O)NC1(C#N)CC1 [Example 93, (2S,4R)-4-(2-Chloro-benzenesulfonyl)-1-methyl-pyrrolidine-2-carboxylic acid (1-cyano-cyclopropyl)-amide] | ≥ 25000 | 966
17 | Cc1cc(N2C[C@H](S(=O)(=O)c3ccc(-c4ccnn4C)cc3C(F)(F)F)C[C@H]2C(=O)NC2(C#N)CC2)n(C2CCC2)n1 [Example 420, (2S,4R)—N-(1-cyanocyclopropyl)-1-(1-cyclobutyl-3-methyl-1H-pyrazol-5-yl)-4-(4-(1-methyl-1H-pyrazol-5-yl)-2-(trifluoromethyl)phenylsulfonyl)pyrrolidine-2-carboxamide] | 14000 | 0.395
18 | N#CCNC(=O)[C@@H]1C[C@@H](S(=O)(=O)c2ccccc2C(F)(F)F)CN1C(=O)C1CCCCC1 [Example 67, (2S,4R)-1-Cyclohexanecarbonyl-4-(2-trifluoromethyl-benzenesulfonyl)-pyrrolidine-2-carboxylic acid cyanomethyl-amide] | ≥ 25000 | 0.2
19 | N#CC1(NC(=O)[C@@H]2C[C@@H](S(=O)(=O)c3ccc(-n4cccn4)cc3Cl)CN2C(=O)C2(c3ccc(Cl)nc3)CC2)CC1 [Example 380, (2S,4R)-4-(2-Chloro-4-pyrazol-1-yl-benzenesulfonyl)-1-[1-(6-chloro-pyridin-3-yl)-cyclopropanecarbonyl]-pyrrolidine-2-carboxylic acid (1-cyano-cyclopropyl)-amide] | 130 | 0.05
20 | N#CC1(NC(=O)[C@@H]2C[C@@H](S(=O)(=O)c3ccccc3Cl)CN2C(=O)C2(c3ccc(Cl)cc3F)CC2)CC1 [Example 439, (2S,4R)-1-(1-(4-chloro-2-fluorophenyl)cyclopropanecarbonyl)-4-(2-chlorophenylsulfonyl)-N-(1-cyanocyclopropyl)pyrrolidine-2-carboxamide] | 29.5 | 0.895
21 | N#CC1(NC(=O)[C@@H]2C[C@@H](S(=O)(=O)c3ccccc3Cl)CN2)CCCCC1 [Example 46, (2S,4R)-4-(2-Chloro-benzenesulfonyl)-pyrrolidine-2-carboxylic acid (1-cyano-cyclohexyl)-amide Hydrochloride] | ≥ 25000 | 208
22 | CS(=O)(=O)c1cccc(N2C[C@H](S(=O)(=O)c3ccccc3C(F)(F)F)C[C@H]2C(=O)NC2(C#N)CC2)c1 [Example 402, (2S,4R)-1-(3-Methanesulfonyl-phenyl)-4-(2-trifluoromethyl-benzenesulfonyl)-pyrrolidine-2-carboxylic acid (1-cyano-cyclopropyl)-amide] | ≥ 25000 | 1.4
23 | N#CC1(NC(=O)[C@@H]2C[C@@H](S(=O)(=O)c3ccc(N4CCN(C5CC5)CC4)cc3Cl)CN2C(=O)C2(c3ccc(Cl)nc3)CC2)CC1 [Example 374, (2S,4R)-4-[2-Chloro-4-(4-cyclopropyl-piperazin-1-yl)-benzenesulfonyl]-1-[1-(6-chloro-pyridin-3-yl)-cyclopropanecarbonyl]-pyrrolidine-2-carboxylic acid (1-cyano-cyclopropyl)-amide; Compound with Formic Acid] | 50.3 | 0.07
24 | Cc1cc(N2C[C@H](S(=O)(=O)c3ccc(-n4cccn4)cc3C(F)(F)F)C[C@H]2C(=O)NC2(C#N)CC2)n(C2CCC2)n1 [Example 416, (2S,4R)-1-(2-Cyclobutyl-5-methyl-2H-pyrazol-3-yl)-4-(4-pyrazol-1-yl-2-trifluoromethyl-benzenesulfonyl)-pyrrolidine-2-carboxylic acid (1-cyano-cyclopropyl)-amide] | 21400 | 0.338
